Results: PMC10803289, “Transport and inhibition mechanism of the human SGLT2–MAP17 glucose transporter” (Nature Structural & Molecular Biology, 2023)

Biological target: T1, hSGLT2 S74A (Homo sapiens, UniProt P31639, S74A)
T1 construct: expressed in transfected cells; host or cells: Expi293 cells, crude membrane fraction
Test: cell-based
From the text: hSGLT2 complementary DNA and human MAP17 cDNA were synthesized and codon-optimized for expression in human cell lines. Both cDNAs were cloned into the pcDNA3.4 vector. The hSGLT2 sequence was fused with an N-terminal signal sequence from human trypsinogen 1, a His10 tag, and sfGFP, followed by a human rhinovirus 3C protease (HRV3C protease) recognition site. Point mutations were introduced into this construct using site-directed mutagenesis. These plasmids were utilized for all experimental procedures conducted in this study.
HEK293 cells (ECACC 85120602) were maintained in Dulbecco’s modified Eagle medium (Gibco) supplemented with 10% fetal bovine serum (Thermo Scientific), 2 mM L-glutamine, 100 U ml^−1 benzylpenicillin and 100 µg ml^−1 streptomycin at 37 °C in a humidified atmosphere (5% CO2 in air). HEK293 cells were seeded at 1.0 × 10^5 cells per well in poly-L-lysine coated 24-well plates. […]
Cell lysates were deproteinized by adding acetonitrile containing candesartan as the internal standard. The α-MG concentration was quantified via liquid chromatography–tandem mass spectrometry (LC–MS/MS) using the internal standard method.
Cellular protein content was determined using a bicinchoninic acid protein assay kit (Thermo Fisher Scientific). The uptake of α-MG was expressed as the ratio of concentration in the cells (in pmol per mg protein) to concentration in the medium (in pmol μl^−1); this is known as the cell-to-medium ratio (in μl per mg protein).
In the inhibition study, the cell-to-medium ratio of cells transfected with the empty vector was used as the background. The specific α-MG uptake was calculated by subtracting this background from the total cell-to-medium ratio and normalized to the uptake achieved without the inhibitor. IC50 was calculated via nonlinear regression using GraphPad Prism 8.4.3.
The concentrations of the extract solution from the filter plate and of the cell lysate were quantified using a tandem mass spectrometry QTRAP6500 System (SCIEX) coupled with an ACQUITY UPLC system (Waters) using the internal standard method. […]

T1 sequence (P31639 whole entry S74A): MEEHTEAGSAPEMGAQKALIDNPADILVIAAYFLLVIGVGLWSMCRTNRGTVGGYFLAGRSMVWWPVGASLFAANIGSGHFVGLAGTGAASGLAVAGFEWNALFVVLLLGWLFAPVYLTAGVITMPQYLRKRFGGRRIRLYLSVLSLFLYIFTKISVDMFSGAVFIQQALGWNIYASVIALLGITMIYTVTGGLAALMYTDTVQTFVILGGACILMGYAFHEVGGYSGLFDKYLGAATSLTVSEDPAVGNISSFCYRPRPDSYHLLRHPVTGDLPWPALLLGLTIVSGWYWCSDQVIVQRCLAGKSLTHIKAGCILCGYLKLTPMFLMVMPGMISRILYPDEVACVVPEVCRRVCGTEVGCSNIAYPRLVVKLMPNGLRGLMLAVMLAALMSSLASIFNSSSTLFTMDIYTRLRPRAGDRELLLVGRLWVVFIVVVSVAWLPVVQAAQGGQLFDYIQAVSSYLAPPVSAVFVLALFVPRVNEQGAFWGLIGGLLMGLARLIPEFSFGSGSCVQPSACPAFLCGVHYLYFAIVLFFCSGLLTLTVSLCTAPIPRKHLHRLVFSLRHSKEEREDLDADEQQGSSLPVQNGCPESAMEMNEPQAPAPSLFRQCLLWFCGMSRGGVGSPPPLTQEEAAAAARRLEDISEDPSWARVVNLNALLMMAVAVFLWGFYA
T1 sequence (Q13113 whole entry, further chain): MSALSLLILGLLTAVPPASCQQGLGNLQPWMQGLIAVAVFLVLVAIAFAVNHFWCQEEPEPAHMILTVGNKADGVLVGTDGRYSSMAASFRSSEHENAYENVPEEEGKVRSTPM

O=C(CCc1ccc(O)cc1)c1c(O)cc(O)cc1O[C@@H]1O[C@H](CO)[C@@H](O)[C@H](O)[C@H]1O [Phlorizin]
remaining activity at 0.003 µM (HEK293, read-out: α-MG uptake (% of control), Phlorizin 3 nM): 95.3% | remaining activity at 0.03 µM (HEK293, read-out: α-MG uptake (% of control), Phlorizin 30 nM): 80.6% | remaining activity at 0.1 µM (HEK293, read-out: α-MG uptake (% of control), Phlorizin 100 nM): 70.1%
